Target: T1, JAK3: Recombinant human kinase domain (Homo sapiens, UniProt P52333)
T1 construct: JAK3: Recombinant human kinase domain from Millipore (Cat #14-629) or prepared; purchased Millipore 14-629
Assay: Determination of IC50 of Janus Kinase (JAK) inhibition, radioactive end-point 33P-ATP assay, JAK3
Format: biochemical
Conditions: ATP 1.5 uM, peptide 50 uM, 20 minutes, read-out: JAK3-INHIB-DR/v1~NO ADDITIVE~Enzyme_Conc = 100
Procedure: Determination of IC50 of Janus Kinase (JAK) Inhibition:
Assay conditions used are described below: • Assay Buffer: JAK Kinase Buffer: 50 mM Hepes [pH 7.2], 10 mM MgCl2, 1 mM DTT, 1 mg/ml BSA. The assay was carried out in this buffer. • Assay Format The kinase activity of all three JAK kinases was measured using a radioactive, end-point assay and with trace amounts of ^33P-ATP. The assays were carried out in 96-well polypropylene plates. Experimental Method:
All concentrations were final in the reaction mixture and all incubations were carried at room temperature. […] Final concentration of DMSO in the reaction was 10%. • 2) Compounds were preincubated with enzyme (0.5 nM JAK3 (commercially available), 0.2 nM JAK3 (prepared), 1 nM JAK2, 5 nM JAK1) for 10 minutes. • 3) Reactions were initiated by the addition of a cocktail of the two substrates (ATP and peptide premixed in the JAK Kinase Buffer). […] JAK1 assay was carried out at an ATP concentration of 10 uM and a peptide concentration of 50 uM. • 4) The duration of the assay for JAK2 and JAK3 is 20 minutes. JAK1 assay was carried out for 40 minutes. With all three enzymes, reactions were terminated by the addition of 0.5M EDTA to a final concentration of 100 mM. • 5) 25 ul of terminated reactions were transferred to 150 ul of a 7.5% (v/v) slurry of streptavidin-coated sepharose beads in MgCl2- and CaCl2-free 1× Phosphate Buffered Saline containing 50 mM of EDTA in 96-well, 1.2 um MultiScreen-BV filter plates. • 6) After a 30-minute incubation, the beads were washed under vacuum with the following buffers: • a. 3 to 4 washes with 200 ul of 2M NaCl. • b. 3 to 4 washes with 200 ul of 2M NaCl plus 1% (v/v) phosphoric acid. • c. 1 wash with water. • 7) Washed plates were dried in a 60° C. oven for between 1 to 2 hours. • 8) 70 ul of Microscint 20 scintillation fluid was added to each well of filter plates and after at least 30 minutes of incubation, radioactive counts were measured in a Perkinelmer microplate scintillation counter.

T1 sequence (P52333 822-1111 limits assumed): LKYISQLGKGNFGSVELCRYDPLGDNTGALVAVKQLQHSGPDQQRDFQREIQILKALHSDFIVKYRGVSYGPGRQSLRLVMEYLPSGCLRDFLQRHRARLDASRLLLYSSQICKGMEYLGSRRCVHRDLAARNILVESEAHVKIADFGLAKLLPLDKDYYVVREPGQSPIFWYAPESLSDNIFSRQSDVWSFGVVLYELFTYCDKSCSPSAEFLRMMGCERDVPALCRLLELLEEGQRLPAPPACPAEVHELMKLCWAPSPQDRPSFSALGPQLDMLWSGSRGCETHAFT

`C[C@H](CCC#N)NC(=O)c1c[nH]c2ncc(-c3nn(C)c4cc(Cl)ccc34)nc12` [Example I-205, 2-(6-Chloro-1-methyl-1H-indazol-3-yl)-5H-pyrrolo[2,3-b]pyrazine-7-carboxylic acid ((R)-3-cyano-1-methyl-propyl)-amide] was tested, and the IC50 was 18.4 nM.

Compound `C[C@@H](NC(=O)c1c[nH]c2ncc(-c3nn(C)c4cc(Cl)cc(Cl)c34)nc12)C(=O)N1CC(C#N)C1` [Example I-97, 2-(4,6-Dichloro-1-methyl-1H-indazol-3-yl)-5H-pyrrolo[2,3-b]pyrazine-7-carboxylic acid [(R)-2-(3-cyano-azetidin-1-yl)-1-methyl-2-oxo-ethyl]-amide] has an IC50 of 57.1 nM.

In the case of `C[C@@H](NC(=O)c1c[nH]c2ncc(-c3nn(C)c4ccsc34)nc12)C(=O)N1CC(C#N)C1` [Example I-99, 2-(1-Methyl-1H-thieno[3,2-c]pyrazol-3-yl)-5H-pyrrolo[2,3-b]pyrazine-7-carboxylic acid [(R)-2-(3-cyano-azetidin-1-yl)-1-methyl-2-oxo-ethyl]-amide], the IC50 is reported as 0.85 nM.

With `Cn1nc(-c2cnc3[nH]cc(C(=O)NC4CCCC4)c3n2)c2ccc(Cl)cc21` [Example I-106, 2-(6-Chloro-1-methyl-1H-indazol-3-yl)-5H-pyrrolo[2,3-b]pyrazine-7-carboxylic acid cyclopentylamide] the IC50 was 5.26 nM.

Work on `C[C@H](Cn1cccn1)NC(=O)c1c[nH]c2ncc(-c3nn(C)c4cc(F)ccc34)nc12` [Example I-133, 2-(6-Fluoro-1-methyl-1H-indazol-3-yl)-5H-pyrrolo[2,3-b]pyrazine-7-carboxylic acid ((R)-1-methyl-2-pyrazol-1-yl-ethyl)-amide] yielded an IC50 of 56.7 nM.

With `C[C@@H](NC(=O)c1c[nH]c2ncc(-c3nn(C)c4c3CCCC4)nc12)C(=O)N1CC(C#N)C1` [Example I-26, 2-(1-Methyl-4,5,6,7-tetrahydro-1H-indazol-3-yl)-5H-pyrrolo[2,3-b]pyrazine-7-carboxylic acid [(R)-2-(3-cyano-azetidin-1-yl)-1-methyl-2-oxo-ethyl]-amide] the IC50 was 5.7 nM.

Compound `CC1CCCCC1NC(=O)c1c[nH]c2ncc(-c3nn(C)c4cc(Cl)ccc34)nc12` (stereo not drawn) [Example I-153, 2-(6-Chloro-1-methyl-1H-indazol-3-yl)-5H-pyrrolo[2,3-b]pyrazine-7-carboxylic acid (2-methyl-cyclohexyl)-amide] has an IC50 of 4.02 nM.

`Cn1nc(-c2cnc3[nH]cc(C(=O)N[C@@H](C(=O)N4CCC(C#N)CC4)C4CC4)c3n2)c2cc(Cl)c(Cl)cc21` [Example I-67, 2-(5,6-Dichloro-1-methyl-1H-indazol-3-yl)-5H-pyrrolo[2,3-b]pyrazine-7-carboxylic acid [(R)-2-(4-cyano-piperidin-1-yl)-1-cyclopropyl-2-oxo-ethyl]-amide] was tested, and the IC50 was 0.48 nM.

`C[C@@H](NC(=O)c1c[nH]c2ncc(-c3nn(CC(=O)O)c4cc(Cl)ccc34)nc12)C(=O)N1CC(C#N)C1` [Example I-226, (6-Chloro-3-{7-[(R)-2-(3-cyano-azetidin-1-yl)-1-methyl-2-oxo-ethylcarbamoyl]-5H-pyrrolo[2,3-b]pyrazin-2-yl}-indazol-1-yl)-acetic acid] gave an IC50 of 8.1 nM.

`C[C@@H](NC(=O)c1c[nH]c2ncc(-c3nn(C)c4cccnc34)nc12)C(=O)N1CC(C#N)C1` [Example I-98, 2-(1-Methyl-1H-pyrazolo[4,3-b]pyridin-3-yl)-5H-pyrrolo[2,3-b]pyrazine-7-carboxylic acid [(R)-2-(3-cyano-azetidin-1-yl)-1-methyl-2-oxo-ethyl]-amide] showed an IC50 of 6.78 nM.

For `CC(C)NC(=O)c1c[nH]c2ncc(-c3nn(CC4CC4)c4cc(Cl)ccc34)nc12` [Example I-309, 2-(6-Chloro-1-cyclopropylmethyl-1H-indazol-3-yl)-5H-pyrrolo[2,3-b]pyrazine-7-carboxylic acid isopropylamide], the IC50 was 28.6 nM.

`C[C@@H](NC(=O)c1c[nH]c2ncc(-c3nn(C)c4cc(F)cc(F)c34)nc12)C(=O)N1CC(C#N)C1` [Example I-88, 2-(4,6-Difluoro-1-methyl-1H-indazol-3-yl)-5H-pyrrolo[2,3-b]pyrazine-7-carboxylic acid [(R)-2-(3-cyano-azetidin-1-yl)-1-methyl-2-oxo-ethyl]-amide] was tested, and the IC50 was 1.57 nM.

`C[C@@H](NC(=O)c1c[nH]c2ncc(-c3nn(C)c4cc(Cl)ccc34)nc12)C(=O)N1CC2(COC2)C1` [Example I-27, 2-(6-Chloro-1-methyl-1H-indazol-3-yl)-5H-pyrrolo[2,3-b]pyrazine-7-carboxylic acid [(R)-1-methyl-2-(2-oxa-6-aza-spiro[3.3]hept-6-yl)-2-oxo-ethyl]-amide] gave an IC50 of 20.5 nM.

Compound `Cc1ccc2c(-c3cnc4[nH]cc(C(=O)N[C@H](C)C(=O)N5CC(C#N)C5)c4n3)nn(C)c2c1` [Example I-82] has an IC50 of 1.36 nM.

Work on `Cn1nc(-c2cnc3[nH]cc(C(=O)N[C@@H](C(=O)N4CCC(C#N)CC4)C(C)(C)C)c3n2)c2cc(Cl)ccc21` [Example I-8, 2-(5-Chloro-1-methyl-1H-indazol-3-yl)-5H-pyrrolo[2,3-b]pyrazine-7-carboxylic acid [(R)-1-(4-cyano-piperidine-1-carbonyl)-2,2-dimethyl-propyl]-amide] yielded an IC50 of 2.83 nM.

`C[C@@H](NC(=O)c1c[nH]c2ncc(-c3nn(C)c4cc(Cl)ccc34)nc12)C(=O)N1CC(F)(F)C1` [Example I-14, 2-(6-Chloro-1-methyl-1H-indazol-3-yl)-5H-pyrrolo[2,3-b]pyrazine-7-carboxylic acid [(R)-2-(3,3-difluoro-azetidin-1-yl)-1-methyl-2-oxo-ethyl]-amide] gave an IC50 of 27.5 nM.

`C[C@H](CNC(=O)c1c[nH]c2ncc(-c3nn(C)c4cc(F)ccc34)nc12)C(N)=O` [Example I-137, 2-(6-Fluoro-1-methyl-1H-indazol-3-yl)-5H-pyrrolo[2,3-b]pyrazine-7-carboxylic acid ((R)-2-carbamoyl-propyl)-amide] gave an IC50 of 132 nM.

Compound `C[C@@H](NC(=O)c1c[nH]c2ncc(-c3nn(C)c4cc(F)ccc34)nc12)[C@H]1CCCO1` [Example I-64, 2-(6-Fluoro-1-methyl-1H-indazol-3-yl)-5H-pyrrolo[2,3-b]pyrazine-7-carboxylic acid [(R)-(R)-1-(tetrahydro-furan-2-yl)-ethyl]-amide] has an IC50 of 13.3 nM.

`C[C@H](CO)NC(=O)c1c[nH]c2ncc(-c3nn(C)c4cc(Cl)ccc34)nc12` [Example I-200, 2-(6-Chloro-1-methyl-1H-indazol-3-yl)-5H-pyrrolo[2,3-b]pyrazine-7-carboxylic acid ((R)-2-hydroxy-1-methyl-ethyl)-amide] showed an IC50 of 54.5 nM.

`C[C@@H](NC(=O)c1c[nH]c2ncc(-c3nn(C)c4cc(Cl)c(F)cc34)nc12)C(=O)N1CC(C#N)C1` [Example I-30, 2-(6-Chloro-5-fluoro-1-methyl-1H-indazol-3-yl)-5H-pyrrolo[2,3-b]pyrazine-7-carboxylic acid [(R)-2-(3-cyano-azetidin-1-yl)-1-methyl-2-oxo-ethyl]-amide] gave an IC50 of 1.45 nM.

`CC[C@@H](C)NC(=O)c1c[nH]c2ncc(-c3nn(C)c4cc(F)ccc34)nc12` [Example I-180, 2-(6-Fluoro-1-methyl-1H-indazol-3-yl)-5H-pyrrolo[2,3-b]pyrazine-7-carboxylic acid ((R)-sec-butyl)-amide] was tested, and the IC50 was 3.89 nM.

Compound `Cn1nc(-c2cnc3[nH]cc(C(=O)N[C@@H](C(=O)N4CCC(C#N)CC4)C4CC4)c3n2)c2ccc(Cl)cc21` [Example I-2, 2-(6-Chloro-1-methyl-1H-indazol-3-yl)-5H-pyrrolo[2,3-b]pyrazine-7-carboxylic acid [(R)-2-(4-cyano-piperidin-1-yl)-1-cyclopropyl-2-oxo-ethyl]-amide] has an IC50 of 0.575 nM.

`C[C@@H](NC(=O)c1c[nH]c2ncc(-c3nn(CCc4ccccn4)c4cc(Cl)ccc34)nc12)C(=O)N1CC(C#N)C1` [Example I-232, 2-[6-Chloro-1-(2-pyridin-2-yl-ethyl)-1H-indazol-3-yl]-5H-pyrrolo[2,3-b]pyrazine-7-carboxylic acid [(R)-2-(3-cyano-azetidin-1-yl)-1-methyl-2-oxo-ethyl)-amide] was tested, and the IC50 was 3.56 nM.

`C[C@H](NC(=O)c1c[nH]c2ncc(-c3nn(C)c4cc(F)ccc34)nc12)c1ncco1` [Example I-51, 2-(6-Fluoro-1-methyl-1H-indazol-3-yl)-5H-pyrrolo[2,3-b]pyrazine-7-carboxylic acid ((S)-1-oxazol-2-yl-ethyl)-amide] showed an IC50 of 9.11 nM.

For `C[C@@H](NC(=O)c1c[nH]c2ncc(-c3nn(C)c4c3CC(C)(C)CC4)nc12)C(=O)N1CC(C#N)C1` [Example I-13], the IC50 was 31.1 nM.

Work on `C[C@@H](NC(=O)c1c[nH]c2ncc(-c3nn(C)c4cc(F)ccc34)nc12)c1ccc(C#N)cc1` [Example I-218, 2-(6-Fluoro-1-methyl-1H-indazol-3-yl)-5H-pyrrolo[2,3-b]pyrazine-7-carboxylic acid [(R)-1-(4-cyano-phenyl)-ethyl]-amide] yielded an IC50 of 14.7 nM.

With `Cn1nc(-c2cnc3[nH]cc(C(=O)N[C@@H](C(=O)N4CCC(C#N)CC4)C4CC4)c3n2)c2ccccc21` [Example I-1] the IC50 was 1.72 nM.

Work on `C[C@@H](NC(=O)c1c[nH]c2ncc(-c3nn(C)c4cc(Cl)c(Cl)cc34)nc12)C(=O)N1CC(C#N)C1` [Example I-6, 2-(5,6-Dichloro-1-methyl-1H-indazol-3-yl)-5H-pyrrolo[2,3-b]pyrazine-7-carboxylic acid [(R)-2-(3-cyano-azetidin-1-yl)-1-methyl-2-oxo-ethyl]-amide] yielded an IC50 of 1.23 nM.

`C[C@@H](NC(=O)c1c[nH]c2ncc(-c3nn(CCN4CCOCC4)c4cc(Cl)ccc34)nc12)C(=O)N1CC(C#N)C1` [Example I-231, 2-[6-Chloro-1-(2-morpholin-4-yl-ethyl)-1H-indazol-3-yl]-5H-pyrrolo[2,3-b]pyrazine-7-carboxylic acid [(R)-2-(3-cyano-azetidin-1-yl)-1-methyl-2-oxo-ethyl]-amide] showed an IC50 of 2.08 nM.

`C[C@@H](C#N)CNC(=O)c1c[nH]c2ncc(-c3nn(C)c4cc(F)ccc34)nc12` [Example I-136, 2-(6-Fluoro-1-methyl-1H-indazol-3-yl)-5H-pyrrolo[2,3-b]pyrazine-7-carboxylic acid ((R)-2-cyano-2-methyl-ethyl)-amide] gave an IC50 of 176 nM.
